Measurements as given in paper PMC3331898 (2012).

Target: T1, retinoic acid receptor-related orphan receptor γ (RORγ) (Homo sapiens, UniProt P51449)
T1 sequence (P51449 265-507 limits assumed): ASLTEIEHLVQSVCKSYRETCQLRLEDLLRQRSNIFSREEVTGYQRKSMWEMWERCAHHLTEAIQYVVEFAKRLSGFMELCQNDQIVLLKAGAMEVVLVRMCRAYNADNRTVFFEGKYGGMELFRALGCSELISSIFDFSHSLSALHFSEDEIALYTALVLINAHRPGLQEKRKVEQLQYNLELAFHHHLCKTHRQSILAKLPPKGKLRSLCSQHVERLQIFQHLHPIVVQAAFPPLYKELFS
Format: binding

Q: With C[C@H]1O[C@@H](O[C@H]2[C@@H](O)C[C@H](O[C@H]3[C@@H](O)C[C@H](O[C@H]4CC[C@@]5(C)[C@H](CC[C@@H]6[C@@H]5C[C@@H](O)[C@]5(C)[C@@H](C7=CC(=O)OC7)CC[C@]65O)C4)O[C@@H]3C)O[C@@H]2C)C[C@H](O)[C@@H]1O [digoxin] as the compound, how does the “differential HDX mass spectrometry” value read?
A: Its value is “HDX) mass spectrometry analysis of the RORγ LBD in the presence and absence of digoxin, T1317, or SR2211”.
